What was measured:
[1] = tested on: Endo/exonuclease in Pneumocystis carinii; conditions: cited from earlier work
human endo-exonuclease = assay: Endo-exonuclease inhibition assay (digestion of circular plasmid DNA, agarose gel); type: biochemical
Experimental: The human endo-exonuclease was isolated according to the method described by Liu and Chow et al (1995). The cultured cells were detached with trypsin-EDTA and the cell suspensions were centrifuged at 4° C. with a force of 700 g for 10 minutes. The cell pellets were washed twice with cold phosphate buffered saline (PBS). The cells were then resuspended and sonicated in 20 mM Tris-HCl, pH 7.5, containing 5 mM EDTA and 1 mM PMSF (buffer A). The resulting cell lysis suspensions were centrifuged at 4° C. at 10,000 g for 15 min. The supernatants were then loaded onto an antibody-protein A-Sepharose affinity column, as previously described by Chow and Resnick (1987). After washing extensively with buffer A (i.e. until the A280 of the eluates were zero), the column was then eluted with buffer A containing 3.5 M MgCl2 to elute the endo-exonuclease. The eluted endo-exonuclease was dialyzed extensively against buffer A with at least two changes of buffer and one change of distilled water. The endo-exonuclease was then concentrated by lyophilization.
The endo-exonuclease activities were determined by measuring the digestion of circular plasmid DNA following the exemplary set of steps. Superhelical pBR322 DNA (or YEp DNA) was treated with endo-exonuclease at 37° C. Reactions were stopped by the addition of a solution containing 5 mM EDTA, 1% SDS, 30% glycerol, and bromophenol blue. The resulting mixtures were then loaded onto a 0.7% agarose gel and electrophoresed for 3 hours at 70 V. The gels were stained with 100 ml of 0.5 μg/ml ethidium bromide solution. Endo-exonuclease activities were measured as the rate of conversion from RFI to RFII to RFIII and subsequent fragments.
For the inhibition assay, pentamidine, mono-amidine compounds according to the present teachings and di-amidine compounds according to the present teachings were added to the endo-exonuclease prior to the start of the nuclease reaction. In order to arrive at the measurements related to the % of cell growth of H661, the MTT assay as described above was performed. The resulting endo-exonuclease inhibition is shown in the Table 1 and Table 2 that follow: […]

Lewis Lung cancer cells = assay: Lewis Lung cancer secondary lung tumours in mice after removal of the primary tumour; type: in vivo; conditions: treated after surgical removal of primary tumour
Experimental: Lewis Lung cancer cells are injected subcutaneously into standard laboratory mice […]. Thereafter, they rapidly formed solid tumours. The sizes of the tumours can be measured. Although the injected cells are derived from lung cancers, the tumours actually grow in the back of the mice. All animals were inoculated at the same site. Primary tumours were allowed to grow until they were 0.5-1.0 cm^3 in size. At this point, cells from the tumours start circulating in the blood streams of the mice. These circulating cells have the capacity to form secondary tumours in the lung. The primary tumours are removed surgically from the mice. The mice are then treated with the amidine compounds so as to try and control the growth of secondary tumours. The extent to which control has been achieved is measured by sacrificing the mice and by physically counting the new tumours that can be seen growing on the surfaces of the lungs.

[2] = tested on: H460 Lung Carcinoma Cell Line; assay: MTT assay on H460 Lung Carcinoma Cell Line; type: cell-based
Source text: (§1) Cell Survival—MTT assay: The MTT (3-[4,5-Dimethylthiazol-2-yl]-2,5 diphenyl tertrazolim bromide) method of determining cell growth/cytotoxicity is used to determine cell survival. MIT is a tetrazolium salt cleaved by mitochondrial dehydrogenases of living cells. Cleavage converts yellow, water soluble MTT to an insoluble, purple formazan crystal. The crystals can be solubilized with a 50% N,N-dimethylformamide (vol/vol), 20% SDS (wt/vol) solution (pH4.7), and absorbance determined at a wavelength of 570 nm. Dead cells will not cleave MTT and uncleaved MTT is not detectable at this wavelength. The amount of MTT that is cleaved increases with increasing cell numbers, and decreases as a result of cell cytotoxicity (Niks and Otto 1990, Hussain et al. 1993). Cells were harvested from cell cultures using a standard protocol (i.e. Trypsin/EDTA). The cells (1000 to 5000 cells depending on cell type in 50 μl) were then plated and incubated overnight at 37° C. The compound (e.g. the compound of formula (I); compound of formula (II); pentamidine; or the vehicle) was introduced. After 2 days of incubation at 37° C., 10 μl of a 5 mg/ml solution of MTT was then added to all the experimental wells as well as the media control well. The plates were further incubated for 4 hours. MTT solubilization buffer (100 μl) was then added and the plates were incubated overnight at 37° C. The plates were then read on an ELISA plate reader with absorbance at 570 nm and a reference at 630 nm.
(§2) Iniparib, Veliparib and Olaparib were also subjected to the MTT assay without an endo-exonuclease compound as controls.

[3] = tested on: HT29 Colon Cancer Cell Line; assay: MTT assay on HT29 Colon Cancer Cell Line; type: cell-based, human
Experimental: (§3) Cell lines from human colon adenocarcinoma (HT29), human breast adenocarcinoma (MCF7) and human cervical epithelioid carcinoma (HeLa) were obtained from the American Type Culture Collection (ATCC) and have ATCC accession numbers HTB-38, HTB-22, and CCL-2 respectively. The normal primary cell, NHDF, was obtained from Dr. Shirley Lehnert. These cells are normal human skin fibroblasts. The cells were grown in RPMI media supplemented with 10% FCS at 37° C. in a humidified incubator with 5% CO2.
as §1, §2

[4] = tested on: MCF7 Breast Cancer Cell Line; assay: MTT assay on MCF7 Breast Cancer Cell Line; type: cell-based, human
Experimental: as §3, §1, §2

H661 (Lung Cancer Cell) = assay: MTT assay, cell growth of H661 lung cancer cell; type: cell-based
Source text: as §1, with “4 hours. […] The plates” for “4 hours. MTT solubilization buffer (100 μl) was then added and the plates were incubated overnight at 37° C. The plates”, “630 nm. […]” for “630 nm.”

[5] = cited from earlier work
[6] = Homo sapiens, NCI-H460, PARP inhibitor alone: Iniparib 42 μM, Veliparib 50 μM, Olaparib 73 μM
[7] = Homo sapiens, HT-29, PARP inhibitor alone: Iniparib 42 μM, Veliparib 50 μM, Olaparib 73 μM
[8] = Homo sapiens, PARP inhibitor alone: Iniparib 42 μM, Veliparib 50 μM, Olaparib 73 μM

## N=C(NC1CC1)c1ccc(-c2ccc(-c3ccc(C(=N)NC4CC4)cc3)o2)cc1 [2,5-bis [4-N-(cyclopropylguanyl)phenyl] furan]
[1]
  nuclease inhibition activity in P. carinii: showed nuclease inhibition activity

## c1cc(-c2ccc(-c3ccc(C4=NCCCN4)cc3)o2)ccc1C1=NCCCN1 [2,5-bis-p[3,4,5,6-tetrahydropyrimidyl)phenyl]furan]
[1]
  nuclease inhibition activity in P. carinii: showed nuclease inhibition activity

## CC(C)NC(=N)c1ccc(-c2ccc(-c3ccc(C(=N)NC(C)C)cc3)o2)cc1 [2,5-bis[4-(N-isopropylguanyl)phenyl]furan]
[1]
  nuclease inhibition activity in P. carinii: inhibits endo-exonuclease activity

## CC(C)CNC(=N)c1ccc(-c2ccc(-c3ccc(C(=N)NCC(C)C)cc3)o2)cc1 [2,5-bis[4-N-isobutylguanyl)phenyl]furan]
[1]
  nuclease inhibition activity in P. carinii: showed nuclease inhibition activity

## N=C(NCC1CC1)c1ccc(-c2ccc(-c3ccc(C(=N)NCC4CC4)cc3)o2)cc1 [2,5-bis[4-[(N-cyclopropylmethylguanyl)phenyl]furan]
[1]
  nuclease inhibition activity in P. carinii: showed nuclease inhibition activity

## N=C(N)c1ccc(-c2ccc(-c3ccc(C(=N)N)cc3)o2)cc1 [2,5-bis[4-guanylphenyl]furan]
[1]
  nuclease inhibition activity in P. carinii: showed nuclease inhibition activity

## N=C(NC1CCC1)c1ccc(-c2ccc(-c3ccc(C(=N)NC4CCC4)cc3)o2)cc1 [2,5-bis[(4-N-cyclobutylgunayl)phenyl]furan]
[1]
  nuclease inhibition activity in P. carinii: showed nuclease inhibition activity

## N=C(NC1CCCC1)c1ccc(-c2ccc(-c3ccc(C(=N)NC4CCCC4)cc3)o2)cc1 [2,5-bis[(4-N-cyclopentylguanyl)phenyl]furan]
[1]
  nuclease inhibition activity in P. carinii: showed nuclease inhibition activity

## N=C(Nc1ccccc1)c1ccc(OCCCCCOc2ccc(C(=N)Nc3ccccc3)cc2)cc1 [Di-Amidine A]
Human endo-exonuclease
  IC50: 58 µM
Lewis Lung cancer cells
  Lung Cysts remaining (% of Control): 1.7 % of Control
[2]; MTDX101 33 μM alone
  % Inhibition: 25%
[2]; MTDX101 336 μM alone
  % Inhibition: 85%
[3]; MTDX101 33 μM alone
  % Inhibition: 15%
[3]; MTDX101 336 μM alone
  % Inhibition: 64%
[4]; MTDX101 33 μM alone
  % Inhibition: 20%
[4]; MTDX101 336 μM alone
  % Inhibition: 80%

## CC(C)NC(=N)c1ccc(OCCCCCOc2ccc(C(=N)NC(C)C)cc2)cc1 [Di-Amidine B]
Human endo-exonuclease
  IC50: 14 µM
Lewis Lung cancer cells
  Lung Cysts remaining (% of Control): 0.22 % of Control

## NC(=O)c1ccc(I)c([N+](=O)[O-])c1 [Iniparib]
[2]; [6]
  inhibition at 42 µM: 0.8%
[3]; [7]
  inhibition at 42 µM: 4.8%
[4]; [8]
  inhibition at 42 µM: 5%

## O=C(c1cc(Cc2n[nH]c(=O)c3ccccc23)ccc1F)N1CCN(C(=O)C2CC2)CC1 [Olaparib]
[2]; [6]
  inhibition at 73 µM: 11%
[3]; [7]
  inhibition at 73 µM: 14%
[4]; [8]
  inhibition at 73 µM: 17%

## N=C(N)c1ccc(OCCCCCOc2ccc(C(=N)N)cc2)cc1 [Pentamidine, pentamidine]
Human endo-exonuclease
  IC50: 50 µM
Human endo-exonuclease; 50 μM
  Endo-exonuclease Inhibition at 50 μM (%): 50%
H661 (Lung Cancer Cell); 2.5 μM, negative value = cell killing
  H661 (Lung Cancer Cell) (% of Cell Growth at 2.5 μM): 20 ± 2%
H661 (Lung Cancer Cell); Table 1
  death of the cancer cells (H661): Death of the cancer cells was not observed
Lewis Lung cancer cells
  Lung Cysts remaining (% of Control): 4.5 % of Control
[5]; 4 mg/kg to 7 mg/kg for two days every two weeks
  safety for patients: safe for patients
[5]; human, in vivo
  toxicity (known clinical data): low toxicity

## C[C@]1(c2nc3c(C(N)=O)cccc3[nH]2)CCCN1 [Veliparib]
[2]; [6]
  inhibition at 50 µM: 19%
[3]; [7]
  inhibition at 50 µM: 6%
[4]; [8]
  inhibition at 50 µM: 13%
